The IC50 is the concentration at which inhibition is half-maximal.

The values that follow come from patent publication US5990146A, “Benzimidazoles for inhibiting protein tyrosine kinase mediated cellular proliferation” (Warner-Lambert Company, priority 1998, dated 1999).

The structures appear in SMILES notation. Where a name gives a salt, the structure may show the parent alone. Some results are limits rather than exact numbers.

Test [1] addresses T1, PDGF receptor tyrosine kinase (mouse PDGF-β) (Mus musculus, UniProt P05622).
T1 construct: PCR primers are designed to amplify a fragment of DNA that codes for the intracellular tyrosine kinase domain; made in house; host or cells: Sf9 insect cells (baculovirus), cell lysate
Nature of the test: PDGFr tyrosine kinase assay (poly glutamate-tyrosine phosphorylation). In kind it is biochemical. As to conditions: Table 1; 10 minutes at 25° C.

Test [2] addresses T2, Human EGF receptor tyrosine kinase (Homo sapiens, UniProt P00533).
T2 construct: Human EGF receptor tyrosine kinase is isolated from A431 human epidermoid carcinoma cells; endogenous in cells; host or cells: A431 human epidermoid carcinoma cells (detergent lysate, fast Q sepharose fractions)
Nature of the test: EGFr tyrosine kinase assay. In kind it is biochemical. As to conditions: Table 1; 10 μM ATP, 25° C., 10 minutes.

Test [3] has as its target T3, insulin receptor (INSr) (Homo sapiens, UniProt P06213).
T3 construct: An assay using the intracellular kinase domains of insulin receptor (INSr) is performed
Nature of the test: Insulin receptor kinase assay. In kind it is biochemical. As to conditions: Table 1; as for EGF receptor with 10 mM manganese chloride.

The test system of test [4] is PDGF receptor autophosphorylation in rat aorta smooth muscle cells. Nature of the test: PDGF Receptor Autophosphorylation Assay in rat aorta smooth muscle cells. In kind it is cell-based. As to conditions: Table 2, PDGF-BB 30 ng/mL, 2 hours pre-incubation, read-out: IC50, inhibition of PDGF-stimulated receptor autophosphorylation.
Experimental: Rat aorta smooth muscle cells (RASMC) are isolated from the thoracic aorta of rats and explanted according to the method of Ross, J. Cell. […] Cells are grown in Dulbecco's modified Eagle's medium (DMEM, Gibco) containing 10% fetal calf serum (FBS, Hyclone, Logan, Utah), 1% glutamine (Gibco) and 1% penicillin/streptomycin (Gibco). Cells are identified as smooth muscle cells by their "hill and valley" growth pattern and by fluorescent staining with a monoclonal antibody specific for SMC μ-actin (Sigma). RASMC are used between passages 5 and 20 for all experiments. Test compounds are prepared in dimethylsulfoxide (DMSO) in order to achieve consistency in the vehicle and to ensure compound solubility. Appropriate DMSO controls are simultaneously evaluated with the test compounds.
Rat aortic smooth muscle cells are grown to confluencey in 100 mm dishes. Growth medium is removed and replaced with serum-free medium and cells are incubated at 37° C. for an additional 24 hours. Test compounds are then added directly to the medium and cells incubated for an additional 2 hours. After 2 hours PDGF-BB is added at a final concentration of 30 ng/mL for 5 minutes at 37° C. to stimulate autophosphorylation of PDGF receptors. Following growth factor treatment, the medium is removed, and cells are washed with cold phosphate-buffered saline and immediately lysed with 1 mL of lysis buffer (50 mM Hepes, pH 7.5, 150 mM NaCl, 10% glycerol, 1% Triton-X 100, 1 mM EDTA, 1 mM EGTA, 50 mM NaF, 1 mM sodium orthovanadate, 30 mM p-nitrophenyl phosphate, 10 mM sodium pyrophosphate, 1 mM phenylmethyl sulfonyl fluoride, 10 μg/mL aprotinin and 10 μg/mL leupeptin). Lysates are centrifuged at 10,000 ×g for 10 minutes. […] Following the incubation, protein-A-sepharose beads are added for 2 hours with continuous mixing, and immune complexes bound to the beads washed 4 times with 1 mL lysis wash buffer. Immune complexes are solubilized in 40 μL of Laemmli sample buffer and electrophoresed in 8-16% SDS polyacrylamide gels. Following electrophoresis, separated proteins are transferred to nitrocellulose and immunoblotted with a 1:1000 dilution of antiphosphotyrosine monoclonal antibody (UBI clone 4G10; #05-321). Following extensive washing with PBS-0.2% tween-20, the blots are incubated with horseradish peroxidase labeled goat antimouse IgG (1:5000; Bio-Rad Inc, Hercules, Calif.) and protein levels are detected by enhanced chemiluminescence (ECL) detection system according to the instructions of the supplier (Amersham Inc, Arlington Heights, Ill.). The density of the protein bands are determined using NIH Image software (v. 1.56) and IC50 values are generated from the densitometric data.
The subject of test [5] is SW-620 cells. Nature of the test: Human Colon Carcinoma Growth Delay Assay. In kind it is cell-based. As to conditions: 72 h, Table 3, SW-620, 3 days. As to the method: Human Colon Carcinoma Growth Delay Assay Human colon carcinoma cells are seeded into 96-well tissue culture plates in a final volume of 180 μL of 10% fetal bovine serum containing growth media and allowed to incubate overnight (37° C., 5% CO2, 95% air). Cells of the SW620 cell line are seeded at 1.0-1.5×10^4 cells per well. Cells of the HCT8 and HT29 cell lines are seeded at 2-4×10^3 cells per well. […] At the end of the incubation period, cells are fixed with 100 μL per well of 10% trichloroacetic acid after removing the drug/culture medium. The plates are washed 5 times with tap water and stained with 100 μL per well of 0.075% sulforhodamine B in 1% acetic acid for 10 minutes. The plates are rinsed 4 times and allowed to air dry. The stain in the wells are solubilized by the addition of 10 mM unbuffered Tris base and the absorbance read using a microtiter plate optical reader. Inhibition of cell growth is calculated from absorbance data of the treated cells compared to untreated control cells. Table 3 provides data for inhibition of growth in human adenocarcinoma cell lines.

The test system of test [6] is SW-620 cells. The test is described as follows: Human Colon Carcinoma Clonogenic Assay. In kind it is cell-based. The procedure: SW620 cells are seeded at 7×10^5 per well; HCT8 cells are seeded at 5×10^5 per well; HT29 cells are seeded at 4×10^5 cells per well. Serially diluted drugs are prepared at 200 ×the final concentration and 15 μL are added to each of duplicate wells. Cells are incubated with drug for 2 days, rinsed once with 1 mL of trypsin+EDTA, and then trypsinized with the same trypsin solution. […] One milliliter of each of these cell suspensions is added to duplicate wells of 6 well plates previously prepared with 10% serum/growth medium/ 1% agarose plugs. The cells in these plates are incubated for approximately 2 weeks in the incubator and stained with 1 mL per well of 1 mg/mL iodonitrotetrazolium violet stain. The visible colonies are counted with an electronic optical colony counter and the clonogenicity of treated cells calculated in comparison to untreated control cells.

The target in test [7] is T4, FGF receptor tyrosine kinase (human FGF-1 (flg)) (Homo sapiens, UniProt P11362).
T4 construct: PCR primers are designed to amplify a fragment of DNA that codes for the intracellular tyrosine kinase domain; made in house; host or cells: Sf9 insect cells (baculovirus), cell lysate
Nature of the test: FGFr tyrosine kinase assay (poly glutamate-tyrosine phosphorylation). In kind it is biochemical. As to conditions: Table 1; 10 minutes at 25° C.

In test [8] the target is MAP Kinase Pathway (GST-MEK / GST-MAPK). Nature of the test: Cascade Assay for Inhibitors of the MAP Kinase Pathway (APK Assay). In kind it is biochemical. As to conditions: Table 1; 50 μM ATP, 20 minutes. The procedure: Cascade Assay for Inhibitors of the MAP Kinase Pathway (APK Assay) Incorporation of ^32 P into myelin basic protein (MBP) is assayed in the presence of a glutathione S-transferase fusion protein containing p44MAP kinase (GST-MAPK) and a glutathione S-transferase fusion protein containing p45MEK (GST-MEK). […] Reactions are stopped after 20 minutes by addition of trichloroacetic acid and filtered through a GF/C filter mat. ^32 P retained on the filter mat is determined using a 1205 betaplate. […] To ascertain whether compounds are inhibiting GST-MEK or GST MAPK, two additional protocols are employed. In the first protocol, compounds are added to tubes containing GST MEK, followed by addition of GST-MAPK, MBP and [γ^32 P]ATP. In the second protocol, compounds are added to tubes containing both GST-MEK and GST-MAPK, followed by MBP and [γ^32 P]ATP. Compounds that show activity in both protocols are scored as […], while compounds showing activity in only the first protocol are scored as MEK inhibitors.

Test [9] concerns the target Protein kinase C (PKC). The test is described as follows: PKC assay. In kind it is biochemical. As to conditions: Table 1; rat brain preparation.
Experimental: Protein kinase C (PKC) is obtained as a rat brain preparation from Promega.
The PKC assay is performed as previously described by Martiny-Baron, et al., J. Biol. Chem. 268: 9194-9197 (1993).
Setting [10] is: Table 3, SW-620, 2 days drug exposure, approximately 2 weeks colony growth, read-out: SW-620 Clonogenic IC50.

T2 sequence (P00533 25-1210): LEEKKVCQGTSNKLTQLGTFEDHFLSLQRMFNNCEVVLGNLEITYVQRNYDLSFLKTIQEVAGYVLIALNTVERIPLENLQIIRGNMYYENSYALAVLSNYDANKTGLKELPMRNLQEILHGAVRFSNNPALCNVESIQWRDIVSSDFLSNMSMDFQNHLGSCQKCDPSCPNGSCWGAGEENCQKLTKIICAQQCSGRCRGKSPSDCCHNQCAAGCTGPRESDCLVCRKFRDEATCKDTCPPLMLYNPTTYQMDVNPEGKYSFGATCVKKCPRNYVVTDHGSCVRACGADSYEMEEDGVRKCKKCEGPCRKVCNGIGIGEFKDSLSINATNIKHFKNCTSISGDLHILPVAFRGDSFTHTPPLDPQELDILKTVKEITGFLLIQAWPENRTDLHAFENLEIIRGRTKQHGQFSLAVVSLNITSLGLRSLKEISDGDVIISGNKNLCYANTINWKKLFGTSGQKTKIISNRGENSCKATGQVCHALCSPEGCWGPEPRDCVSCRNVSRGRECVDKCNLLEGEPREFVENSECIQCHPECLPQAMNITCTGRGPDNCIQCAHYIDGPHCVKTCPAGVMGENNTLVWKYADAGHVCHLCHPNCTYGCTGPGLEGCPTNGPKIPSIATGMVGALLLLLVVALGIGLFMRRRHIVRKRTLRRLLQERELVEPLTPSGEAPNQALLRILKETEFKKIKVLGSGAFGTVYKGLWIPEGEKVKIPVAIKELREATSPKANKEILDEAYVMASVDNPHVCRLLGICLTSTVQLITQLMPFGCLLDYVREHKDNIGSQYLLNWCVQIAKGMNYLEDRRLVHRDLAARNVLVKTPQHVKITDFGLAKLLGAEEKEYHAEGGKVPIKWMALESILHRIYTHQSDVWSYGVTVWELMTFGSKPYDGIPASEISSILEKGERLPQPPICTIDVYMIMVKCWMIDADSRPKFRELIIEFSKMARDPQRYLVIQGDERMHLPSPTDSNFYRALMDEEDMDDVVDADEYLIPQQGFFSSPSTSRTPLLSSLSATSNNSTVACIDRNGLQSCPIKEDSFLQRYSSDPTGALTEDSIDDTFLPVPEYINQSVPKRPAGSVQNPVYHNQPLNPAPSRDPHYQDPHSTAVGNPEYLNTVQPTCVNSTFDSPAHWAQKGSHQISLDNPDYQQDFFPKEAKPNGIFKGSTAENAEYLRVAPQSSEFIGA
T1 sequence (P05622 599-961 limits assumed): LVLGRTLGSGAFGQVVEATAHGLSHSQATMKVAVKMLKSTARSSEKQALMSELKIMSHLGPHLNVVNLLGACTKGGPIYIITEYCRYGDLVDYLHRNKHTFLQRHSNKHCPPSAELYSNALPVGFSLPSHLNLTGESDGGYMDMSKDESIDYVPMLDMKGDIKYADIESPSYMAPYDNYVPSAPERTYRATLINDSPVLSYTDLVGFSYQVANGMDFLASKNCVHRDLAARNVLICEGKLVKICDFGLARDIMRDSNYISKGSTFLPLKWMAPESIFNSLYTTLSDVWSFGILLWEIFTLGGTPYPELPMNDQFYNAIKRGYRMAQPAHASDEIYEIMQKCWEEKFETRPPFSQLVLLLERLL
T3 sequence (P06213 1023-1298 limits assumed, species assumed): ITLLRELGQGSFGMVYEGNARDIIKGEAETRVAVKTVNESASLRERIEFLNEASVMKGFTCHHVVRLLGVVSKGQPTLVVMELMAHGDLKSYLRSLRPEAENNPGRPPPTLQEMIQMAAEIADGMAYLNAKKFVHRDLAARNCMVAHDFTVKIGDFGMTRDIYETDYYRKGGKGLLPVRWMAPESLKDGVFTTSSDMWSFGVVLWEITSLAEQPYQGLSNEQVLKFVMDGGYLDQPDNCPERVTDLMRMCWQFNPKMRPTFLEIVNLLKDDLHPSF
T4 sequence (P11362 478-767 limits assumed): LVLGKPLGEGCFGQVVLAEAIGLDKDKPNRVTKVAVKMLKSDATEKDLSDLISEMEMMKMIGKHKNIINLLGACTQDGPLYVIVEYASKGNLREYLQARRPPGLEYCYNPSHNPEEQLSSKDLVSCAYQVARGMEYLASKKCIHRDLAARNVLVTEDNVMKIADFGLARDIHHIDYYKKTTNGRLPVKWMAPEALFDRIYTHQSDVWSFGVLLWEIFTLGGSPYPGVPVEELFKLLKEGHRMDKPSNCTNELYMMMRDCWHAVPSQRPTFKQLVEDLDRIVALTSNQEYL

For `Oc1cccc2c1ncn2-c1ccccc1` [Example 11, 4-Hydroxy-1-phenylbenzimidazole Hydrochloride], the IC50 in test [1] was 10.6 µM; in [2] it was greater than 50 µM; in test [3], greater than 50 µM; in test [4], greater than 10 µM; in [5], greater than 25 µM; in test [6] (SW-620, read-out: SW-620 Clonogenic IC50) it was greater than 5 µM. Further, in test [6] (setting [10]), the IC50 turned out to be 2.1 µM.
As to `COc1ccc2c(c1)ncn2-c1ccccc1` [Example 13, 5-Methoxy-1-phenylbenzimidazole Hydrochloride], the IC50 in [1] was 0.4 µM; in test [7], 22 µM; in test [2], less than 50 µM; in test [3] it was greater than 50 µM; in test [8], 5 µM; in test [9] it was greater than 50 µM. For the same compound, the results for the IC50 in test [4], in [5] and in test [6] (setting [10]) were 2 µM, greater than 25 µM and greater than 5 µM, respectively.
